Data as given in publication PMC11497361 (Current Research in Microbial Sciences, 2024).

Molecular target: WNV NS5 WT
Assay: MTase-Glo luminescence methyltransferase assay
Type: biochemical, Orthoflavivirus nilense
Details: poly-A RNA acceptor, 20 µM SAM, pH 9, 30 °C, 25 min; MTase activity

Compound | IC50 [µM]
Nc1ncnc2c1ncn2[C@@H]1O[C@H](CNC(=O)C(c2ccccc2)(c2ccccc2)c2ccccc2)[C@@H](O)[C@H]1O [compound 1, 5´-(2,2,2-triphenylacetamide)-5´-deoxyadenosine] | 21.6 ± 11.1
Nc1ncnc2c1ncn2[C@@H]1O[C@H](C[C@@H](N)CC[C@H](N)C(=O)O)[C@@H](O)[C@H]1O [sinefungin] | 3.6 ± 1.8
